Data from US20110082177A1, “N'-NITROXYALKYLNICOTINAMIDES FOR THE TREATMENT OF CARDIOVASCULAR DISEASES” (priority 2008, published 2011).

Tests used:
[1] = Binding to heparin, absorption method; conditions: compound 100 μM, heparin immobilised on Sepharose 25 mg/ml
Description: The absorption method consisted in comparing the absorption spectrum of an aqueous solution of the tested compound with the absorption spectrum of the same solution after its incubation with Sepharose immobilised heparin as a glycosaminoglycan mimicking the glycosaminoglycan receptor. The absorption spectra were recorded using a Perkin Elmer Lambda 40 spectrophotometer. The following reagents were prepared prior to the experiment: an aqueous solution of the tested compound of Example 1, namely 1-methyl-N′-(2-nitroxyethyl)nicotinamide chloride (MNIC^+Cl^−), at a concentration of 100 μM, an aqueous suspension of heparin immobilised on Sepharose at 25 mg/ml, and a solution of MNIC^+Cl^− in an aqueous suspension of heparin having the same concentrations in both the tested compound and heparin as mentioned above. Following the initial incubation of the solution of the tested compound with heparin, it was centrifuged for 6 minutes at 13,000 rpm. Then supernatant solutions above the precipitate of heparin were separated and the spectra of the solutions were recorded at the wavelength range of 200-600 nm.
The degree of binding of MNIC^+ to heparin was determined by calculating the areas under the absorption curves of the compound before and after contact with heparin, using the following relationship: […]

[2] = Binding to heparin, radiation method (pulse radiolysis); conditions: water-soluble heparin 10 μM
Description: The experiment consisted in studying the effect of the presence of heparin on the observed rate of scavenging the hydrated electron by the MNIC^+ cation. The studies were carried out by pulse radiolysis, using an Elektronika ELU-6E linear electron accelerator (at the Institute of Applied Radiation Chemistry, Technical University of Lodz, Poland) having an electron beam energy of 6-8 MeV, as an ionising-radiation source. A solution of water-soluble heparin at a concentration of 10 μM was used in the experiment. […]
Based on the recorded kinetic traces of decay of the hydrated electron in the presence of the MNIC^+Cl^− solutions at various concentrations, the values of the pseudo-first order rate constants were determined. The value of the second-order rate constant for the investigated reaction was determined from the slope of the linear dependence of the above-determined rate constants versus concentration. […] Then, based on the determined second-order reaction rate constant and the observed rate constant for decay of the hydrated electron in the presence of heparin and MNIC^+, the degree of binding of the tested compound to heparin was determined using the following relationship: […]

[3] = Scavenging of the hydrated electron by pulse radiolysis; format: physicochemical; conditions: no heparin added, λ=720 nm
Description: The experiment consisted in studying the effect of the presence of heparin on the observed rate of scavenging the hydrated electron by the MNIC^+ cation. The studies were carried out by pulse radiolysis, using an Elektronika ELU-6E linear electron accelerator (at the Institute of Applied Radiation Chemistry, Technical University of Lodz, Poland) having an electron beam energy of 6-8 MeV, as an ionising-radiation source. A solution of water-soluble heparin at a concentration of 10 μM was used in the experiment. […] Based on the recorded kinetic traces of decay of the hydrated electron in the presence of the MNIC^+Cl^− solutions at various concentrations, the values of the pseudo-first order rate constants were determined. The value of the second-order rate constant for the investigated reaction was determined from the slope of the linear dependence of the above-determined rate constants versus concentration. […] Then, based on the determined second-order reaction rate constant and the observed rate constant for decay of the hydrated electron in the presence of heparin and MNIC^+, the degree of binding of the tested compound to heparin was determined using the following relationship: […]

[4] = tested on: isolated rat aorta; test: Vasodilating effect on phenylephrine contracted isolated rat aortal rings; conditions: isolated rat aorta with preserved endothelial function; concentrations range from tens to hundreds μmol/l
Description: (§1) The vasodilating effect of MNIC^+Cl^− in aqueous solutions on isolated rat aorta was studied in the conditions close to physiological ones. 3-5 mm aortal rings with preserved endothelial function placed in a set of 6 containers a 5 ml containing the Krebs-Henseleit buffer constantly aerated with 5% CO2 in O2 and thermostated at 37° C. were suspended between two hooks connected to the force transducer for recording the ring contraction. Then, following the constriction induced by phenylephrine, the concentration-dependent vasodilating effect of MNIC^+Cl^− was investigated by measurement of relaxation of phenylephrine contracted aortal rings.

[5] = tested on: soluble guanyl cyclase (sGC); test: Effect of sGC inhibitor ODQ on vasodilatating activity in isolated rat aortal rings
Description: as §1
(§2) The experiments explaining the mechanisms responsible for vasodilation induced by MNIC^+Cl^− were carried out in the same system of isolated vascular vessels. In order to determine the contribution of sGC and KATP channels in the vasodilating activity of the compound, the effects of an inhibitor of ATP-dependent potassium channels—glibenclamide (GLB) at a concentration of 10 μM, and an inhibitor of soluble guanyl cyclase (sGC) 1H-[1,2,4]-oxadiazole[4,3-a]quinoxalin-1-one (ODQ) at a concentration of 10 μM on this vasodilating activity were investigated in two set of experiments. In these experiments, MNIC^+Cl^− was used at the concentrations causing about 80-90% vasodilation, as determined in the experiment described above. […]

[6] = tested on: ATP-dependent potassium channels; test: Effect of potassium channel inhibitor GLB on vasodilatating activity in isolated rat aortal rings
Description: as §1, §2

[7] = Ability to release NO by EPR method; conditions: preliminary investigations
Description: Preliminary investigations of the ability of MNIC^+Cl^− to release NO were also performed using EPR (Electron Paramagnetic Resonance) method. The results of these studies confirmed that MNIC^+Cl^− releases NO, and most likely the vasodilating activity of the compound is a consequence of the stimulation of sGC by NO thus released.

Structure (SMILES)	degree of binding to heparin [1] [%]	degree of binding to heparin [2] [%]	second-order rate constant for the reaction of hydrated electron with the MNIC+ cation [3] [M⁻¹ s⁻¹]	vasodilating activity (relaxation of phenylephrine contracted aortal rings) [4]	effect of further addition of ODQ after GLB pre-incubation on vasodilatating activity ([5]; ODQ 10 μM added after GLB 10 μM)	effect of pre-incubation with ODQ on vasodilatating activity ([5]; ODQ 10 μM, MNIC+Cl− at concentrations causing about 80-90% vasodilation)	effect of addition of GLB after ODQ pre-incubation on reversal of the ODQ effect ([6]; GLB 10 μM added after ODQ 10 μM)	effect of pre-incubation with GLB on vasodilatating activity ([6]; GLB 10 μM, MNIC+Cl− at concentrations causing about 80-90% vasodilation)	ability to release NO [7]
C[n+]1cccc(C(N)=O)c1 [1-methylnicotinamide, reference compound]	50	39	–	–	–	–	–	–	–
C[n+]1cccc(C(=O)NCCO[N+](=O)[O-])c1.[Cl-] [MNIC^+Cl^−, 1-Methyl-N′-(2-nitroxyethyl)nicotinamide chloride]	30	47	4.17e+10 to 1e+11	concentration-dependent vasodilating activity	inhibition of vasodilatating activity	inhibited vasodilatating activity	no further influence	had no influence	releases NO
